Test results published in publication PMC10913484, “Hydroxyhexylitaconic acids as potent IMP-type metallo-β-lactamase inhibitors for controlling carbapenem resistance in Enterobacterales” (Microbiology Spectrum, 2024).
Values after ≈ are worked out from the molar mass of the structure shown. Where two headings read alike, the source gives them in different places.

Experiments:
E. coli DH5α pBC-VIM-2 = test: Susceptibility test (microdilution), transformant; assay type: cell-based
Procedure: (§1) Susceptibility testing, based on the microdilution method, was performed according to the guidelines of the Clinical and Laboratory Standards Institute ([36]).

IMP-1 [1] = biological target: T1, IMP-1 (Serratia marcescens, UniProt P52699); assay type: biochemical; conditions: IMP-1 with agent (5 mM stock), dialysis
T1 construct: made in house
T1 sequence (P52699 19-246, looked up, species assumed): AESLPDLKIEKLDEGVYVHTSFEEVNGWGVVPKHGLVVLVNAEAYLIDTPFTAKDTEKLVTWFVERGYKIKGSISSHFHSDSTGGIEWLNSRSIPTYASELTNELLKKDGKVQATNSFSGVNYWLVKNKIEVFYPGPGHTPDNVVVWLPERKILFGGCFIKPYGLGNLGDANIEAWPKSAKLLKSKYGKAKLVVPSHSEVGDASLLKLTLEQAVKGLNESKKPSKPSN
Procedure: A total of 5 µL of IMP-1 (100 µM) and 2 µL of EDTA (5 mM) or HHIA (5 mM) were mixed in 100 µL of 20 mM HEPES buffer (pH 7.5) pretreated with Chelex 100 resin (Bio-Rad) and incubated on ice for 30 min. The samples were dialyzed against ultrapure water at 4°C for 6 h using Slide-A-Lyzer Dialysis Cassettes (cutoff, 3.5 K) (Thermo Fisher Scientific) and treated with proteinase K (FUJIFILM Wako Pure Chemical Corporation) at 37°C for 1 h. The zinc concentration in the samples was determined using a Zinc Assay Kit (MG Metallogenics).

IMP-1 [2] = biological target: T1, IMP-1; assay type: binding; conditions: DSF; control protein 52.5°C
Procedure: The DSF assay was performed using the Protein Thermal Shift Dye Kit (Thermo Fisher Scientific) and StepOnePlus Real-Time PCR Systems (Applied Biosystems) as follows: 2 µL of IMP-1 enzyme (100 µM), 1 µL of EDTA or HHIA solution (5 mM), 2.5 µL of diluted Protein Thermal Shift Dye (32×), 5 µL of Protein Thermal Shift buffer, and 9.5 µL of water were mixed in a test tube and incubated for 15 min at 4°C. Four replicates of each sample were performed. The fluorescence was monitored at 0.7°C increments from 4°C to 99°C. The relative fluorescence units were fitted with the Boltzmann equation using the TSA-CRAFT software to determine the melting point (Tm) ([47]).

[3] = system: K. pneumoniae AR0076 (VIM-1); test: Susceptibility test, clinical isolate; assay type: cell-based; conditions: Klebsiella pneumoniae
Procedure: as §1

E. coli NUBL-22 (IMP-6) = test: Susceptibility test, clinical isolate; assay type: cell-based; conditions: Escherichia coli
Procedure: as §1

[4] = system: K. pneumoniae MS5674 (NDM-1/VIM-1); test: Susceptibility test, clinical isolate; assay type: cell-based; conditions: Klebsiella pneumoniae
Procedure: as §1

[5] = system: P. penneri E11-M475 (IMP-1); test: Susceptibility test, clinical isolate; assay type: cell-based; conditions: Proteus penneri
Procedure: as §1

[6] = system: K. pneumoniae AR0034 (IMP-4); test: Susceptibility test, clinical isolate; assay type: cell-based; conditions: Klebsiella pneumoniae, K. pneumoniae AR0034 (IMP-4)
Procedure: as §1

E. coli 465 (IMP-1) = test: Susceptibility test, clinical isolate; assay type: cell-based; conditions: Escherichia coli
Procedure: as §1

[7] = system: E. cloacae NUBL-5 (IMP-1); test: Susceptibility test, clinical isolate; assay type: cell-based; conditions: Enterobacter cloacae
Procedure: as §1

E. coli NUBL-24 (IMP-1) = test: Susceptibility test, clinical isolate; assay type: cell-based; conditions: E. coli NUBL-24 (IMP-1); for MIC: Escherichia coli
Procedure: as §1

[8] = system: K. pneumoniae NUBL-23 (IMP-6); test: Susceptibility test, clinical isolate; assay type: cell-based; conditions: Klebsiella pneumoniae
Procedure: as §1

[9] = system: K. oxytoca NUBL-827 (IMP-1); test: Susceptibility test, clinical isolate; assay type: cell-based; conditions: Klebsiella oxytoca
Procedure: as §1

E. coli 426 (IMP-1) = test: Susceptibility test, clinical isolate; assay type: cell-based; conditions: Escherichia coli
Procedure: as §1

[10] = system: K. pneumoniae NUBL-8 (IMP-1); test: Susceptibility test, clinical isolate; assay type: cell-based; conditions: Klebsiella pneumoniae
Procedure: as §1

E. coli DH5α pBC-NDM-1 = test: Susceptibility test (microdilution), transformant; assay type: cell-based; conditions: E. coli DH5α pBC-NDM-1
Procedure: as §1

E. coli DH5α pBC-IMP-1 = test: Susceptibility test (microdilution), transformant; assay type: cell-based
Procedure: as §1

E. coli DH5α pCL-SMB-1 = test: Susceptibility test (microdilution), transformant; assay type: cell-based; conditions: E. coli DH5α pCL-SMB-1
Procedure: as §1

IMP-1 [11] = biological target: T1, IMP-1; test: In vitro inhibition assay (IPM hydrolysis); assay type: biochemical; conditions: read-out: IC50 for IMP-1
Procedure: MBLs were incubated with HHIAs in 20 mM HEPES buffer (pH 7.5) containing 200 mM NaCl and 50 µg/mL BSA at 30°C for 5 min. IPM was added at a concentration of 100 µM, and the rate of IPM hydrolysis was monitored at 297 nm. The initial velocity (v0) rates were plotted against HHIA’s logarithmic concentrations, and the data were fitted to a four-parameter variable slope to obtain the half-maximal inhibitor concentration (IC50) values using GraphPad Prism 9 software (GraphPad Software). The inhibition constant (Ki) was determined as follows: v0 was measured after varying the concentrations of IPM and HHIAs, and inverse v0 (1/v0) was plotted against the inverse IPM concentration [1/(IPM)]. Lineweaver–Burk plots were created to obtain Ki values under the competitive inhibition model using the SigmaPlot 14 suite (Hulinks).

[12] = system: IMP-1-producing E. coli NUBL-24; test: Time-killing assay; assay type: cell-based; conditions: MPM 1 µg/mL alone
Procedure: The initial density of IMP-1-producing E. coli NUBL-24 (MPM MIC, 8 µg/mL) was adjusted to approximately 5 × 10^6 colony-forming units (cfu)/mL. Either MPM (1 µg/mL) or 9-HHIA/10-HHIA (50 µg/mL) alone or a combination of the two was added to the bacterial solution, and then incubation was performed at 37°C. LB broth containing bacteria alone was used as a control. At 0, 2, 4, 8, and 12 h after adding the agents, an aliquot of the bacterial culture was removed, diluted, and spotted on LB agar plates to count the viable bacterial cells. The detection limit was set at 333 cfu/mL.

[13] = IPM alone (Control), read-out: IPM MIC
[14] = MPM alone (Control), read-out: MPM MIC

`CC(C)(O/N=C(\C(=O)N[C@@H]1C(=O)N2C(C(=O)[O-])=C(C[n+]3ccccc3)CS[C@H]12)c1csc(N)n1)C(=O)O` [CAZ, ceftazidime] showed an MIC (E. coli DH5α pBC-VIM-2; Escherichia coli, read-out: CAZ MIC, CAZ alone (Control)) of 4 to 8 µg/mL (≈ 7.32 to 14.6 µM).
With `O=C(O)CN(CCN(CC(=O)O)CC(=O)O)CC(=O)O` [EDTA, reference compound] the “Zinc ions in IMP-1 after treatment” value (IMP-1 [1]) was “completely lost” and the “Melting temperature (Tm) of treated IMP-1” value (IMP-1 [2]) was 43.4 °C.
Compound `C[C@@H](O)[C@H]1C(=O)N2C(C(=O)O)=C(SCCN=CN)C[C@H]12` [IPM, imipenem, reference compound] has an MIC [3, 13] of 32 µg/mL (≈ 107 µM), an MIC (E. coli NUBL-22 (IMP-6); [13]) of 2 µg/mL (≈ 6.68 µM) and an MIC [4, 13] of 32 µg/mL (≈ 107 µM). For the same compound, the MIC [5, 13] was over 64 µg/mL, the MIC [6, 13] was 4 µg/mL (≈ 13.4 µM) and the MIC (E. coli 465 (IMP-1); [13]) was 32 µg/mL (≈ 107 µM). For the same compound, the MIC [7, 13] was 8 µg/mL (≈ 26.7 µM), the MIC (E. coli NUBL-24 (IMP-1); [13]) was 8 µg/mL (≈ 26.7 µM) and the MIC [8, 13] was 1 µg/mL (≈ 3.34 µM). For the same compound, the MIC [9, 13] was 16 µg/mL (≈ 53.4 µM), the MIC (E. coli 426 (IMP-1); [13]) was 8 µg/mL (≈ 26.7 µM) and the MIC [10, 13] was 4 µg/mL (≈ 13.4 µM).
With `C=C(CC(=O)O)C(=O)O` [Itaconic acid, itaconic acid] the “MPM MIC” value (E. coli DH5α pBC-NDM-1; +agent 6.25 μg/mL) was over 64 µg/mL, the “MPM MIC” value (E. coli DH5α pBC-NDM-1; +agent 25 μg/mL) was over 64 µg/mL and the “MPM MIC” value (E. coli DH5α pBC-NDM-1; +agent 100 μg/mL) was over 64 µg/mL. The “CAZ MIC” value (E. coli DH5α pBC-VIM-2; +agent 6.25 μg/mL) was 8 µg/mL, the “CAZ MIC” value (E. coli DH5α pBC-VIM-2; +agent 25 μg/mL) was 8 µg/mL and the “CAZ MIC” value (E. coli DH5α pBC-VIM-2; +agent 100 μg/mL) was 8 µg/mL. For the same compound, the “MPM MIC” value (E. coli DH5α pBC-IMP-1; +agent 6.25 μg/mL) was 1 µg/mL, the “MPM MIC” value (E. coli DH5α pBC-IMP-1; +agent 25 μg/mL) was 1 µg/mL and the “MPM MIC” value (E. coli DH5α pBC-IMP-1; +agent 100 μg/mL) was 1 µg/mL. The “MPM MIC” value (E. coli DH5α pCL-SMB-1; +agent 6.25 μg/mL) was 32 µg/mL, the “MPM MIC” value (E. coli DH5α pCL-SMB-1; +agent 25 μg/mL) was 32 µg/mL and the “MPM MIC” value (E. coli DH5α pCL-SMB-1; +agent 100 μg/mL) was 32 µg/mL. It also gave an IC50 (IMP-1 [11]) of over 1000 µM.
`C[C@@H](O)[C@H]1C(=O)N2C(C(=O)O)=C(S[C@@H]3CN[C@H](C(=O)N(C)C)C3)[C@H](C)[C@H]12` [MPM, meropenem, reference compound] was tested, and the “Time-kill: MPM alone” value [12] was “regrew close to the control level at 12 h”, the MIC (E. coli DH5α pBC-IMP-1; Escherichia coli, read-out: MPM MIC, MPM alone (Control)) was 1 µg/mL (≈ 2.61 µM) and the “MPM MIC” value (E. coli DH5α pBC-IMP-1; MPM alone (Control)) was 1 µg/mL. The MIC [3, 14] was 32 µg/mL (≈ 83.4 µM), the MIC (E. coli NUBL-22 (IMP-6); [14]) was 32 µg/mL (≈ 83.4 µM) and the MIC [4, 14] was over 64 µg/mL. The MIC [5, 14] was over 64 µg/mL, the MIC [6, 14] was 8 µg/mL (≈ 20.9 µM) and the MIC (E. coli 465 (IMP-1); [14]) was 32 µg/mL (≈ 83.4 µM). The MIC [7, 14] was 16 µg/mL (≈ 41.7 µM), the MIC (E. coli NUBL-24 (IMP-1); [14]) was 8 µg/mL (≈ 20.9 µM) and the “MPM MIC” value (E. coli NUBL-24 (IMP-1); MPM alone (Control)) was 8 µg/mL. It also gave an MIC [8, 14] of 64 µg/mL (≈ 167 µM), an MIC [9, 14] of 32 µg/mL (≈ 83.4 µM) and an MIC (E. coli 426 (IMP-1); [14]) of 16 µg/mL (≈ 41.7 µM). It also gave an MIC [10, 14] of 16 µg/mL (≈ 41.7 µM).
